From PubChem BioAssay (NCI)
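Step 1: Grow cells in 96-well plates. Step 2: Expose to compound for 48 hours at 5 concentrations. Step 3: Interpolate endpoints linearly; if unreached, use highest concentration. Definition used: TGI = concentration required for complete inhibition of growth.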

Columns and labels:
Assay in all cases: growth of human tumour cells (NCI), 48 h
HOP-62 NSCLC = test system: HOP-62 NSCLC
CCRF-CEM leukemia = test system: CCRF-CEM leukemia
IGROV1 ovarian = test system: IGROV1 ovarian
COLO 205 colon = test system: COLO 205 colon
NCI-H23 lung = test system: NCI-H23 lung
HCT-116 colon = test system: HCT-116 colon
A549 NSCLC = test system: A549 NSCLC
MDA-MB-231 breast = test system: MDA-MB-231 breast
RPMI-8226 leukemia = test system: RPMI-8226 leukemia
SF-539 CNS = test system: SF-539 CNS
TK-10 renal = test system: TK-10 renal
HCT-15 colon = test system: HCT-15 colon
MDA-MB-435 = test system: MDA-MB-435
SF-295 CNS = test system: SF-295 CNS
MOLT-4 leukemia = test system: MOLT-4 leukemia
786-0 renal = test system: 786-0 renal
M14 melanoma = test system: M14 melanoma
SN12C renal = test system: SN12C renal
MDA-N = test system: MDA-N
SF-268 CNS = test system: SF-268 CNS
SK-MEL-2 melanoma = test system: SK-MEL-2 melanoma
HT29 colon = test system: HT29 colon
A498 renal = test system: A498 renal
T-47D breast = test system: T-47D breast
HCC-2998 colon = test system: HCC-2998 colon
SNB-75 CNS = test system: SNB-75 CNS
OVCAR-8 ovarian = test system: OVCAR-8 ovarian
DU-145 prostate = test system: DU-145 prostate
PC-3 prostate = test system: PC-3 prostate
UO-31 renal = test system: UO-31 renal
SNB-19 CNS = test system: SNB-19 CNS
NCI-H226 lung = test system: NCI-H226 lung
LOX IMVI melanoma = test system: LOX IMVI melanoma
CAKI-1 renal = test system: CAKI-1 renal
UACC-257 melanoma = test system: UACC-257 melanoma
MCF7 breast = test system: MCF7 breast
SK-MEL-5 melanoma = test system: SK-MEL-5 melanoma
HS 578T breast = test system: HS 578T breast
OVCAR-3 ovarian = test system: OVCAR-3 ovarian
SR leukemia = test system: SR leukemia
RXF 393 renal = test system: RXF 393 renal
NCI-H460 lung = test system: NCI-H460 lung
OVCAR-4 ovarian = test system: OVCAR-4 ovarian
EKVX NSCLC = test system: EKVX NSCLC
ACHN renal = test system: ACHN renal
SK-OV-3 ovarian = test system: SK-OV-3 ovarian
NCI-H522 lung = test system: NCI-H522 lung
KM12 colon = test system: KM12 colon
NCI/ADR-RES ovarian = test system: NCI/ADR-RES ovarian
HL-60(TB) leukemia = test system: HL-60(TB) leukemia
MALME-3M melanoma = test system: MALME-3M melanoma
OVCAR-5 ovarian = test system: OVCAR-5 ovarian
K-562 leukemia = test system: K-562 leukemia
SK-MEL-28 melanoma = test system: SK-MEL-28 melanoma
U251 CNS = test system: U251 CNS
HOP-92 NSCLC = test system: HOP-92 NSCLC
SW-620 colon = test system: SW-620 colon
UACC-62 melanoma = test system: UACC-62 melanoma
BT-549 breast = test system: BT-549 breast

Measured: TGI

O=[N+]([O-])c1cc(C2ON=C(c3ccccc3)N2C23CC4CC(CC(C4)C2)C3)ccc1Cl (stereo not given)
> 100 µM: HOP-62 NSCLC | CCRF-CEM leukemia | IGROV1 ovarian | COLO 205 colon | NCI-H23 lung | HCT-116 colon | A549 NSCLC | MDA-MB-231 breast | RPMI-8226 leukemia | SF-539 CNS | TK-10 renal | HCT-15 colon | MDA-MB-435 | SF-295 CNS | MOLT-4 leukemia | 786-0 renal | M14 melanoma | SN12C renal | MDA-N | SF-268 CNS | SK-MEL-2 melanoma | HT29 colon | A498 renal | T-47D breast | HCC-2998 colon | OVCAR-8 ovarian | DU-145 prostate | PC-3 prostate | UO-31 renal | SNB-19 CNS | NCI-H226 lung | LOX IMVI melanoma | CAKI-1 renal | UACC-257 melanoma | MCF7 breast | SK-MEL-5 melanoma | HS 578T breast | OVCAR-3 ovarian | SR leukemia | RXF 393 renal | NCI-H460 lung | OVCAR-4 ovarian | EKVX NSCLC | ACHN renal | SK-OV-3 ovarian | NCI-H522 lung | KM12 colon | NCI/ADR-RES ovarian | HL-60(TB) leukemia | MALME-3M melanoma | OVCAR-5 ovarian | K-562 leukemia | SK-MEL-28 melanoma | U251 CNS | HOP-92 NSCLC
93.6 µM: SNB-75 CNS

O=C1OCC(CN2CCC(n3c(=O)[nH]c4ccccc43)CC2)=C1c1ccccc1
92.7 µM: HCT-116 colon
24.6 µM: T-47D breast
35.2 µM: UO-31 renal
56.1 µM: RPMI-8226 leukemia
89.6 µM: ACHN renal
76.7 µM: NCI-H226 lung
31.6 µM: OVCAR-8 ovarian
56.2 µM: LOX IMVI melanoma
40.7 µM: HL-60(TB) leukemia
61 µM: SK-MEL-28 melanoma
39.6 µM: OVCAR-4 ovarian
96.4 µM: MCF7 breast
60.5 µM: CCRF-CEM leukemia
38.1 µM: SK-MEL-2 melanoma
52.2 µM: NCI-H23 lung
77.2 µM: HCC-2998 colon
28.1 µM: COLO 205 colon
62.4 µM: MDA-MB-435
79.3 µM: MDA-MB-231 breast
56.6 µM: MALME-3M melanoma
71.7 µM: DU-145 prostate
60.6 µM: OVCAR-3 ovarian
35.6 µM: SF-539 CNS
67.3 µM: SNB-19 CNS
60.4 µM: HS 578T breast
68.6 µM: A498 renal
28.9 µM: SK-MEL-5 melanoma
53.1 µM: SN12C renal
72.6 µM: SF-295 CNS
60 µM: MOLT-4 leukemia
59.6 µM: NCI/ADR-RES ovarian
47.3 µM: UACC-257 melanoma
51.4 µM: CAKI-1 renal
46.5 µM: NCI-H522 lung
78.7 µM: MDA-N
94.2 µM: SK-OV-3 ovarian
54.9 µM: HCT-15 colon
64.5 µM: HOP-62 NSCLC
63.1 µM: TK-10 renal
33.4 µM: M14 melanoma
57.1 µM: EKVX NSCLC
26.9 µM: UACC-62 melanoma
58.6 µM: HT29 colon
> 100 µM: A549 NSCLC | SW-620 colon | RXF 393 renal | OVCAR-5 ovarian | K-562 leukemia | U251 CNS
31.2 µM: KM12 colon
95.5 µM: SF-268 CNS
41.6 µM: PC-3 prostate
72.4 µM: SNB-75 CNS
82.5 µM: 786-0 renal | SR leukemia
51.1 µM: IGROV1 ovarian
21.2 µM: NCI-H460 lung

CN(C)C=Nc1cccc2c1NSN2
> 100 µM: HOP-62 NSCLC | CCRF-CEM leukemia | IGROV1 ovarian | COLO 205 colon | NCI-H23 lung | HCT-116 colon | A549 NSCLC | MDA-MB-231 breast | RPMI-8226 leukemia | SF-539 CNS | TK-10 renal | HCT-15 colon | MDA-MB-435 | SF-295 CNS | MOLT-4 leukemia | 786-0 renal | M14 melanoma | SN12C renal | MDA-N | SF-268 CNS | SK-MEL-2 melanoma | HT29 colon | A498 renal | T-47D breast | HCC-2998 colon | SNB-75 CNS | OVCAR-8 ovarian | DU-145 prostate | PC-3 prostate | UO-31 renal | SNB-19 CNS | SW-620 colon | NCI-H226 lung | LOX IMVI melanoma | CAKI-1 renal | UACC-257 melanoma | MCF7 breast | UACC-62 melanoma | SK-MEL-5 melanoma | HS 578T breast | OVCAR-3 ovarian | SR leukemia | RXF 393 renal | NCI-H460 lung | OVCAR-4 ovarian | EKVX NSCLC | ACHN renal | SK-OV-3 ovarian | NCI-H522 lung | KM12 colon | NCI/ADR-RES ovarian | HL-60(TB) leukemia | MALME-3M melanoma | OVCAR-5 ovarian | K-562 leukemia | SK-MEL-28 melanoma | U251 CNS | HOP-92 NSCLC

COC(=O)c1cc(OCc2cc(OCc3ccc(Br)cc3)cc(OCc3ccc(Br)cc3)c2)cc(OCc2cc(OCc3ccc(Br)cc3)cc(OCc3ccc(Br)cc3)c2)c1
> 100 µM: HOP-62 NSCLC | COLO 205 colon | NCI-H23 lung | HCT-116 colon | BT-549 breast | A549 NSCLC | MDA-MB-231 breast | RPMI-8226 leukemia | SF-539 CNS | TK-10 renal | HCT-15 colon | MDA-MB-435 | SF-295 CNS | MOLT-4 leukemia | 786-0 renal | M14 melanoma | SN12C renal | MDA-N | SF-268 CNS | SK-MEL-2 melanoma | A498 renal | T-47D breast | HCC-2998 colon | SNB-75 CNS | DU-145 prostate | PC-3 prostate | UO-31 renal | SNB-19 CNS | NCI-H226 lung | CAKI-1 renal | UACC-257 melanoma | MCF7 breast | UACC-62 melanoma | SK-MEL-5 melanoma | OVCAR-3 ovarian | NCI-H460 lung | OVCAR-4 ovarian | EKVX NSCLC | ACHN renal | SK-OV-3 ovarian | NCI-H522 lung | KM12 colon | NCI/ADR-RES ovarian | MALME-3M melanoma | OVCAR-5 ovarian | K-562 leukemia | SK-MEL-28 melanoma | U251 CNS | HOP-92 NSCLC
